Data published in the supplement of paper PMC11424490.

How the values were obtained:
Assay in all cases: combination cScore with sotorasib (Bliss gap around IC50) (%PoC); higher = stronger additive effect
NCI-H2122 = test system: NCI-H2122
Outline: (§1)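 The score averages the gap between expected and measured viability under Bliss independence, taken over a field around the IC50 of each single agent or, where an IC50 was not reached, at the highest concentrations. Viability came from CellTiter-Glo luminescence, normalised to vehicle wells as percent of control and fitted with four-parameter curves. NCI-H2122, NCI-H358 and SW837 cells were dosed in concentration matrices 24 h after seeding and grown for 72 h, or 144 h for SW837.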

NCI-H358 = test system: NCI-H358
Outline: as §1

SW837 = test system: SW837
Outline: as §1

| Compound | combination cScore with sotorasib (NCI-H2122) | combination cScore with sotorasib (NCI-H358) | combination cScore with sotorasib (SW837) |
| --- | --- | --- | --- |
| CC1(C)CCC(c2ccc(Cl)cc2)=C(CN2CCN(c3ccc(C(=O)NS(=O)(=O)c4ccc(N[C@H](CCN5CCOCC5)CSc5ccccc5)c(S(=O)(=O)C(F)(F)F)c4)cc3)CC2)C1 [ABT-263] + C=CC(=O)N1CCN(c2nc(=O)n(-c3c(C)ccnc3C(C)C)c3nc(-c4c(O)cccc4F)c(F)cc23)[C@@H](C)C1 [sotorasib] | 15.1 | 2.08 | 20.7 |
| COc1cc(CCc2cc(NC(=O)c3ccc(N4CC(C)NC(C)C4)cc3)n[nH]2)cc(OC)c1 (stereo not given) [AZD4547] + C=CC(=O)N1CCN(c2nc(=O)n(-c3c(C)ccnc3C(C)C)c3nc(-c4c(O)cccc4F)c(F)cc23)[C@@H](C)C1 [sotorasib] | 11.8 | 5.01 | 8.33 |
| CCN(CCCOc1ccc2c(Nc3cc(CC(=O)Nc4cccc(F)c4)[nH]n3)ncnc2c1)CCOP(=O)(O)O [AZD-1152] + C=CC(=O)N1CCN(c2nc(=O)n(-c3c(C)ccnc3C(C)C)c3nc(-c4c(O)cccc4F)c(F)cc23)[C@@H](C)C1 [sotorasib] | 11.3 | 1.15 | 9.37 |
| CCN1CCN(Cc2ccc(Nc3ncc(F)c(-c4cc(F)c5nc(C)n(C(C)C)c5c4)n3)nc2)CC1 [Abemaciclib] + C=CC(=O)N1CCN(c2nc(=O)n(-c3c(C)ccnc3C(C)C)c3nc(-c4c(O)cccc4F)c(F)cc23)[C@@H](C)C1 [sotorasib] | 9.29 | 6.78 | 19.6 |
| CN(C)C/C=C/C(=O)Nc1cc2c(Nc3ccc(F)c(Cl)c3)ncnc2cc1O[C@H]1CCOC1 [Afatinib] + C=CC(=O)N1CCN(c2nc(=O)n(-c3c(C)ccnc3C(C)C)c3nc(-c4c(O)cccc4F)c(F)cc23)[C@@H](C)C1 [sotorasib] | 22.8 | 11.4 | 20.1 |
| COc1cc2nc(C)nc(N[C@H](C)c3cc(N)cc(C(F)(F)F)c3)c2cc1O[C@H]1CCOC1 [BI-3406 (SOSi)] + C=CC(=O)N1CCN(c2nc(=O)n(-c3c(C)ccnc3C(C)C)c3nc(-c4c(O)cccc4F)c(F)cc23)[C@@H](C)C1 [sotorasib] | 28.9 | 13 | 9.14 |
| Nc1cc(C(F)(F)F)c(-c2cc(N3CCOCC3)nc(N3CCOCC3)n2)cn1 [BKM120] + C=CC(=O)N1CCN(c2nc(=O)n(-c3c(C)ccnc3C(C)C)c3nc(-c4c(O)cccc4F)c(F)cc23)[C@@H](C)C1 [sotorasib] | 16.9 | 4.4 | 15.9 |
| Cc1nc(NC(=O)N2CCC[C@H]2C(N)=O)sc1-c1ccnc(C(C)(C)C(F)(F)F)c1 [BYL-719] + C=CC(=O)N1CCN(c2nc(=O)n(-c3c(C)ccnc3C(C)C)c3nc(-c4c(O)cccc4F)c(F)cc23)[C@@H](C)C1 [sotorasib] | 24.8 | 5.72 | 24.4 |
| COC(=O)[C@]12CCC(C)(C)C[C@H]1[C@H]1C(=O)C=C3[C@@]4(C)C=C(C#N)C(=O)C(C)(C)[C@@H]4CC[C@@]3(C)[C@]1(C)CC2 [Bardoxolone methyl] + C=CC(=O)N1CCN(c2nc(=O)n(-c3c(C)ccnc3C(C)C)c3nc(-c4c(O)cccc4F)c(F)cc23)[C@@H](C)C1 [sotorasib] | 13 | -1.43 | 3 |
| O=C(/C=C/c1cccc(S(=O)(=O)Nc2ccccc2)c1)NO [Belinostat] + C=CC(=O)N1CCN(c2nc(=O)n(-c3c(C)ccnc3C(C)C)c3nc(-c4c(O)cccc4F)c(F)cc23)[C@@H](C)C1 [sotorasib] | 10.8 | -2.69 | 9.09 |
| Cc1c(N)nc([C@H](CC(N)=O)NC[C@H](N)C(N)=O)nc1C(=O)N[C@H](C(=O)N[C@H](C)[C@@H](O)[C@H](C)C(=O)N[C@H](C(=O)NCCc1nc(-c2nc(C(=O)NCCC[S+](C)C)cs2)cs1)[C@@H](C)O)[C@@H](OC1OC(CO)C(O)C(O)C1OC1OC(CO)C(O)C(OC(N)=O)C1O)c1cnc[nH]1 (stereo not given in full) [Bleomycin] + C=CC(=O)N1CCN(c2nc(=O)n(-c3c(C)ccnc3C(C)C)c3nc(-c4c(O)cccc4F)c(F)cc23)[C@@H](C)C1 [sotorasib] | 19.9 | -4.36 | 11.1 |
| CC(C)C[C@H](NC(=O)[C@H](Cc1ccccc1)NC(=O)c1cnccn1)B(O)O [Bortezomib] + C=CC(=O)N1CCN(c2nc(=O)n(-c3c(C)ccnc3C(C)C)c3nc(-c4c(O)cccc4F)c(F)cc23)[C@@H](C)C1 [sotorasib] | 5.05 | 0.21 | -5.84 |
| COc1cc(Nc2c(C#N)cnc3cc(OCCCN4CCN(C)CC4)c(OC)cc23)c(Cl)cc1Cl [Bosutinib] + C=CC(=O)N1CCN(c2nc(=O)n(-c3c(C)ccnc3C(C)C)c3nc(-c4c(O)cccc4F)c(F)cc23)[C@@H](C)C1 [sotorasib] | 8.9 | 5.71 | 11.2 |
| CC[C@H](Nc1ncnc2[nH]cnc12)c1nc2cccc(F)c2c(=O)n1-c1ccccc1 [Cal-101] + C=CC(=O)N1CCN(c2nc(=O)n(-c3c(C)ccnc3C(C)C)c3nc(-c4c(O)cccc4F)c(F)cc23)[C@@H](C)C1 [sotorasib] | 29.1 | 3.19 | 7.76 |
| O=P1(N(CCCl)CCCl)NCCCO1 (stereo not given) [Cyclophosphamide] + C=CC(=O)N1CCN(c2nc(=O)n(-c3c(C)ccnc3C(C)C)c3nc(-c4c(O)cccc4F)c(F)cc23)[C@@H](C)C1 [sotorasib] | -0.02 | 4.33 | -10.5 |
| Cc1nc(Nc2ncc(C(=O)Nc3c(C)cccc3Cl)s2)cc(N2CCN(CCO)CC2)n1 [Dasatinib] + C=CC(=O)N1CCN(c2nc(=O)n(-c3c(C)ccnc3C(C)C)c3nc(-c4c(O)cccc4F)c(F)cc23)[C@@H](C)C1 [sotorasib] | 30.8 | 9.3 | 17.9 |
| COc1cccc2c1C(=O)c1c(O)c3c(c(O)c1C2=O)C[C@@](O)(C(C)=O)C[C@@H]3O[C@H]1C[C@H](N)[C@H](O)[C@H](C)O1 [Daunorubicin] + C=CC(=O)N1CCN(c2nc(=O)n(-c3c(C)ccnc3C(C)C)c3nc(-c4c(O)cccc4F)c(F)cc23)[C@@H](C)C1 [sotorasib] | 18.1 | 2.01 | 5.95 |
| C[C@H](Nc1ncnc2nc[nH]c12)c1cc2cccc(Cl)c2c(=O)n1-c1ccccc1 [Duvelisib] + C=CC(=O)N1CCN(c2nc(=O)n(-c3c(C)ccnc3C(C)C)c3nc(-c4c(O)cccc4F)c(F)cc23)[C@@H](C)C1 [sotorasib] | 14.2 | 4.86 | 18.6 |
| C#Cc1cccc(Nc2ncnc3cc(OCCOC)c(OCCOC)cc23)c1 [Erlotinib] + C=CC(=O)N1CCN(c2nc(=O)n(-c3c(C)ccnc3C(C)C)c3nc(-c4c(O)cccc4F)c(F)cc23)[C@@H](C)C1 [sotorasib] | 27.4 | 10.2 | 23 |
| COc1cc(Nc2ncc(F)c(Nc3ccc4c(n3)N(COP(=O)(O)O)C(=O)C(C)(C)O4)n2)cc(OC)c1OC [Fostamatinib] + C=CC(=O)N1CCN(c2nc(=O)n(-c3c(C)ccnc3C(C)C)c3nc(-c4c(O)cccc4F)c(F)cc23)[C@@H](C)C1 [sotorasib] | 23.3 | 8.55 | 23.7 |
| C[C@H](Nc1ccc2c(c1)OCCn1cc(N3C(=O)OC[C@H]3C(F)F)nc1-2)C(N)=O [GDC-0077] + C=CC(=O)N1CCN(c2nc(=O)n(-c3c(C)ccnc3C(C)C)c3nc(-c4c(O)cccc4F)c(F)cc23)[C@@H](C)C1 [sotorasib] | 25.4 | 3.7 | 18.3 |
| CCCc1cc(C)[nH]c(=O)c1CNC(=O)c1cc(-c2ccnc(N3CCN(C)CC3)c2)cc2c1cnn2C(C)C [GSK343] + C=CC(=O)N1CCN(c2nc(=O)n(-c3c(C)ccnc3C(C)C)c3nc(-c4c(O)cccc4F)c(F)cc23)[C@@H](C)C1 [sotorasib] | 8.7 | 2.88 | 9.75 |
| COc1cc2ncnc(Nc3ccc(F)c(Cl)c3)c2cc1OCCCN1CCOCC1 [Gefitinib] + C=CC(=O)N1CCN(c2nc(=O)n(-c3c(C)ccnc3C(C)C)c3nc(-c4c(O)cccc4F)c(F)cc23)[C@@H](C)C1 [sotorasib] | 26.4 | 8.62 | 23.2 |
| CCS(=O)(=O)Nc1ccc2c(c1)/C(=C(/Nc1ccc(CN3CCCCC3)cc1)c1ccccc1)C(=O)N2 [Hesperadin] + C=CC(=O)N1CCN(c2nc(=O)n(-c3c(C)ccnc3C(C)C)c3nc(-c4c(O)cccc4F)c(F)cc23)[C@@H](C)C1 [sotorasib] | 12.3 | 4.25 | 5.4 |
| O=C(O)CNC(=O)c1c(O)c2ccccc2n(Cc2ccccc2)c1=O [IOX2] + C=CC(=O)N1CCN(c2nc(=O)n(-c3c(C)ccnc3C(C)C)c3nc(-c4c(O)cccc4F)c(F)cc23)[C@@H](C)C1 [sotorasib] | 21.3 | 0.66 | 17.9 |
